The values that follow come from ChEMBL document CHEMBL1136529, “Synthesis and SAR of cis-1-benzoyl-1,2,3,4-tetrahydroquinoline ligands for control of gene expression in ecdysone responsive systems” (Bioorg Med Chem Lett, 2003).

Common to all, as to assay type: functional
Test [1] addresses T1, Ecdysone receptor (Aedes aegypti) (UniProt P49880).
T1 sequence (whole entry): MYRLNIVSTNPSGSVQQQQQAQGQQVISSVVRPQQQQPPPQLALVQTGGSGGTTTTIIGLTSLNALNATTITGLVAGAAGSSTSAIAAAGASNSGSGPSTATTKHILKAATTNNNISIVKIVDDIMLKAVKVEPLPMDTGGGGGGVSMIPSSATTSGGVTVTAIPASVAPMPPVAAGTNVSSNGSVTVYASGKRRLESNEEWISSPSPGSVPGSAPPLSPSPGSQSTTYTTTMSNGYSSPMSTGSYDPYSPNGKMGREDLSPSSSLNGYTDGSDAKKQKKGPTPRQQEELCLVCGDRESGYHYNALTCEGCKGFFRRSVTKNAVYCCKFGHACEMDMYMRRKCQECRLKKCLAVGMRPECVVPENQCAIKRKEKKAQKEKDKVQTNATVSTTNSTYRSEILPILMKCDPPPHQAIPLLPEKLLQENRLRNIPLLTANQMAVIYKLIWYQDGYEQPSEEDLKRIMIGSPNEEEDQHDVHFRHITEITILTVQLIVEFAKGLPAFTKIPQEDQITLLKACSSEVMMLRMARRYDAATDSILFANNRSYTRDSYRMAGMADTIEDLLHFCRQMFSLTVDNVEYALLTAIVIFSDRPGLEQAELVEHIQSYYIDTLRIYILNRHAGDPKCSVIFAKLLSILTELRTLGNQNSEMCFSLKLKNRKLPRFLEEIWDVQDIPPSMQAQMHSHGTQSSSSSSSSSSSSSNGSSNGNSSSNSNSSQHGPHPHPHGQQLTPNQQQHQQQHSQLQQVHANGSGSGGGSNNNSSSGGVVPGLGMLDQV
In words: Fold induction of ecdysone-dependent transactivation in mammalian cell line expressing Aedes aegypti ecdysone receptor at 33 uM.

For test [2], the target named is T1, Ecdysone receptor (Aedes aegypti). Briefly: Ratio of maximal ecdysone-dependent transactivation in cell line expressing Aedes aegypti ecdysone receptor compared to cpd2.
Another test addresses T2, Ecdysone receptor (Aedes aegypti, UniProt P49880).
T2 sequence (P49880 whole entry): T1 sequence (whole entry)
Briefly: Effective concentration for ecdysone-dependent transactivation in mammalian cell line expressing Aedes aegypti ecdysone receptor.

The compound `Cc1ccc(N[C@H]2C[C@@H](C)N(C(=O)c3ccccc3C)c3ccc(C)cc32)cc1` showed a Fold induction in test [1] of 19. In addition, the Rel Max FI in test [2] came out at 0.04. On Ecdysone receptor, this compound displayed an EC50 of 8710 nM.
In the same order, the values of `C[C@@H]1C[C@H](Nc2ccc(F)cc2)c2cc(F)ccc2N1C(=O)c1ccc(Cl)cc1` are 212, 0.7 and 640 nM.
On to `Cc1ccc(C(=O)N2c3ccccc3[C@@H](Nc3ccccc3)C[C@H]2C)cc1`, for which, in test [1], the Fold induction was 64. Besides, the Rel Max FI in test [2] is 0.42. Moreover, a half-maximal effect on Ecdysone receptor (EC50) was put at 990 nM.
As to `CCc1c(OC)cccc1C(=O)NN(C(=O)c1cc(C)cc(C)c1)C(C)(C)C`, it took 440 nM to reach a half-maximal effect at Ecdysone receptor (EC50). That is a sub-micromolar value.
In test [1], `COc1ccc(C(=O)N2c3ccc(C)cc3[C@@H](Nc3ccc(C)cc3)C[C@H]2C)cc1` yielded a Fold induction of 57. Moreover, the Rel Max FI in test [2] was 0.09. Besides, the EC50 on Ecdysone receptor was determined as 5320 nM.
For the compound `C[C@@H]1C[C@H](Nc2ccc(F)cc2)c2cc(F)ccc2N1C(=O)c1cccc(C(F)(F)F)c1`, the Fold induction in test [1] came to 89. Further, in test [2], the Rel Max FI was found to be 0.93. For the same compound, at Ecdysone receptor, the response was half-maximal at 1000 nM (EC50).
For the compound `Cc1ccc(N[C@H]2C[C@@H](C)N(C(=O)c3ccc(C)cc3)c3ccc(C)cc32)cc1`, the Fold induction in test [1] was determined as 121. The Rel Max FI in test [2] was 0.26. The EC50 at Ecdysone receptor was 5000 nM.
As for `COc1ccc(C(=O)N2c3ccccc3[C@@H](Nc3ccccc3)C[C@H]2C)cc1`, in test [1], the Fold induction is 64. The Rel Max FI in test [2] turned out to be 0.44. The compound also returned an EC50 on Ecdysone receptor of 1430 nM.
`C[C@@H]1C[C@H](Nc2ccccc2)c2ccccc2N1C(=O)c1ccc(Cl)cc1`: the Fold induction in test [1] is 130. Besides, in test [2], the Rel Max FI was found to be 0.43. Moreover, on Ecdysone receptor, the EC50 came to 980 nM.
The like results for `Cc1ccc(N[C@H]2C[C@@H](C)N(C(=O)c3ccccc3C(F)(F)F)c3ccc(C)cc32)cc1` were, in that order, 12, 0.04 and above 33300 nM.
As to `COc1ccccc1C(=O)N1c2ccc(F)cc2[C@@H](Nc2ccc(F)cc2)C[C@H]1C`, in test [1], the Fold induction was 4. The Rel Max FI in test [2] came out at 0.01. The EC50 on Ecdysone receptor was above 33300 nM.
`C[C@@H]1C[C@H](Nc2ccccc2)c2ccccc2N1C(=O)c1cccc(C(F)(F)F)c1` displayed a Fold induction in test [1] of 28. The Rel Max FI in test [2] came to 0.42. The compound further yielded an EC50 at Ecdysone receptor of 1210 nM.
`COc1cccc(C(=O)N2c3ccccc3[C@@H](Nc3ccccc3)C[C@H]2C)c1` returned a Fold induction in test [1] of 9. Besides, in test [2], the Rel Max FI worked out at 0.15. At Ecdysone receptor, the response was half-maximal at 700 nM (EC50).
In test [1], `Cc1ccc(N[C@H]2C[C@@H](C)N(C(=O)c3cccc(F)c3)c3ccc(C)cc32)cc1` yielded a Fold induction of 102. In addition, in test [2], the Rel Max FI was found to be 0.27. For the same compound, a half-maximal response on Ecdysone receptor (EC50) required 3000 nM.
`Cc1ccc(N[C@H]2C[C@@H](C)N(C(=O)c3cccc(C)c3)c3ccc(C)cc32)cc1` returned a Fold induction in test [1] of 6. In test [2], the Rel Max FI is 0.01. Moreover, the concentration for a half-maximal effect (EC50) at Ecdysone receptor was above 33300 nM.
With `Cc1ccc(N[C@H]2C[C@@H](C)N(C(=O)c3cccc(C(F)(F)F)c3)c3ccc(C)cc32)cc1`, the Fold induction in test [1] came out at 12. Also, the Rel Max FI in test [2] came out at 0.47. The compound further yielded an EC50 on Ecdysone receptor of 1840 nM.
The like results for `Cc1ccc(C(=O)N2c3ccc(F)cc3[C@@H](Nc3ccc(F)cc3)C[C@H]2C)cc1` were, in that order, 91, 0.67 and 870 nM.
Turning to `Cc1ccc(N[C@H]2C[C@@H](C)N(C(=O)c3ccc(C(F)(F)F)cc3)c3ccc(C)cc32)cc1`, the Fold induction in test [1] was found to be 69. Moreover, in test [2], the Rel Max FI stood at 0.23. In addition, on Ecdysone receptor, a half-maximal effect (EC50) was put at 4410 nM.
As for `Cc1cccc(C(=O)N2c3ccc(F)cc3[C@@H](Nc3ccc(F)cc3)C[C@H]2C)c1`, in test [1], the Fold induction came out at 686. In test [2], the Rel Max FI was 0.55. On Ecdysone receptor, this compound returned an EC50 of 1360 nM.
In turn, `COc1ccccc1C(=O)N1c2ccc(C)cc2[C@@H](Nc2ccc(C)cc2)C[C@H]1C` yielded a Fold induction in test [1] of 0.
In test [1], `C[C@@H]1C[C@H](Nc2ccc(F)cc2)c2cc(F)ccc2N1C(=O)c1ccccc1C(F)(F)F` returned a Fold induction of 64. The Rel Max FI in test [2] turned out to be 0.32. This compound displayed an EC50 on Ecdysone receptor of 11000 nM.
`COc1cccc(C(=O)N2c3ccc(C)cc3[C@@H](Nc3ccc(C)cc3)C[C@H]2C)c1` registered a Fold induction in test [1] of 3. In test [2], the Rel Max FI was 0.01. This compound displayed a concentration giving a half-maximal response (EC50) at Ecdysone receptor above 33300 nM.
In the case of `COc1cccc(C(=O)N2c3ccc(F)cc3[C@@H](Nc3ccc(F)cc3)C[C@H]2C)c1`, the Fold induction in test [1] worked out at 119. The Rel Max FI in test [2] turned out to be 0.98. The midpoint of the response at Ecdysone receptor, the EC50, lay at 1480 nM.
Take `Cc1ccc(N[C@H]2C[C@@H](C)N(C(=O)c3ccc(Cl)cc3)c3ccc(C)cc32)cc1`: the Fold induction in test [1] came to 43. Also, in test [2], the Rel Max FI was found to be 0.39. At Ecdysone receptor, this compound yielded an EC50 of 2150 nM.
Take `C[C@@H]1C[C@H](Nc2ccccc2)c2ccccc2N1C(=O)c1cccc(F)c1`: in test [1], the Fold induction came out at 75. In addition, in test [2], the Rel Max FI was found to be 0.44. Further, the EC50 on Ecdysone receptor came out at 750 nM.
As for `C[C@@H]1C[C@H](Nc2ccccc2)c2ccccc2N1C(=O)c1ccc(C(F)(F)F)cc1`, the Fold induction in test [1] turned out to be 89. For the same compound, in test [2], the Rel Max FI stood at 0.64. For the same compound, the EC50 at Ecdysone receptor was found to be 1180 nM.
Regarding `Cc1ccc(N[C@H]2C[C@@H](C)N(C(=O)c3ccccc3)c3ccc(C)cc32)cc1`, the Fold induction in test [1] is 35. The Rel Max FI in test [2] stood at 0.19. The compound further registered an EC50 at Ecdysone receptor of 5400 nM.
Consider `Cc1ccccc1C(=O)N1c2ccc(F)cc2[C@@H](Nc2ccc(F)cc2)C[C@H]1C`, for which the Fold induction in test [1] amounted to 158. The Rel Max FI in test [2] came out at 0.5. The compound also had an EC50 on Ecdysone receptor of 3190 nM.
Consider `C[C@@H]1C[C@H](Nc2ccc(F)cc2)c2cc(F)ccc2N1C(=O)c1cccc(F)c1`, for which the Fold induction in test [1] amounted to 204. Besides, the Rel Max FI in test [2] came to 0.57. This compound displayed a concentration for a half-maximal effect (EC50) at Ecdysone receptor of 990 nM.
The like results for `C[C@@H]1C[C@H](Nc2ccc(F)cc2)c2cc(F)ccc2N1C(=O)c1ccccc1F` were, in that order, 78, 0.28 and 3000 nM.
In turn, `C[C@@H]1C[C@H](Nc2ccccc2)c2ccccc2N1C(=O)c1ccccc1C(F)(F)F` gave a Fold induction in test [1] of 1.
On to `C[C@@H]1C[C@H](Nc2ccc(F)cc2)c2cc(F)ccc2N1C(=O)c1ccccc1`, for which the Fold induction in test [1] came to 283. In addition, in test [2], the Rel Max FI is 0.76. This compound came in with an EC50 at Ecdysone receptor of 1730 nM.
Regarding `C[C@@H]1C[C@H](Nc2ccc(F)cc2)c2cc(F)ccc2N1C(=O)c1ccc(C(F)(F)F)cc1`, in test [1], the Fold induction is 230. Moreover, the Rel Max FI in test [2] came to 0.63. This compound also yielded an EC50 at Ecdysone receptor of 920 nM.
In turn, `COc1ccc(C(=O)N2c3ccc(F)cc3[C@@H](Nc3ccc(F)cc3)C[C@H]2C)cc1` came in with a Fold induction in test [1] of 110. Besides, in test [2], the Rel Max FI is 0.87. At Ecdysone receptor, this compound displayed a 50% effective concentration (EC50) of 1140 nM.
`Cc1ccc(N[C@H]2C[C@@H](C)N(C(=O)c3ccccc3F)c3ccc(C)cc32)cc1` returned a Fold induction in test [1] of 5. Moreover, in test [2], the Rel Max FI was found to be 0.01. Also, the EC50 at Ecdysone receptor is above 33300 nM.
Compound `C[C@@H]1C[C@H](Nc2ccccc2)c2ccccc2N1C(=O)c1ccccc1` showed a Fold induction in test [1] of 20. The Rel Max FI in test [2] is 0.07. At Ecdysone receptor, this compound registered an EC50 of 1120 nM.

By EC50 is commonly meant the midpoint of the concentration-response curve. High values mean a less potent agent, low ones a more potent agent.
